{"source": "ChEMBL document CHEMBL4342417", "about": "“Design, synthesis and evaluation of novel phenothiazine derivatives as inhibitors of breast cancer stem cells” (Eur J Med Chem, 2019)", "key": {"MCF7 [1]": {"system": "MCF7", "assay": "Inhibition of colony formation in human MCF7 cells at 0.20 uM incubated for 14 days with replacement of medium for every 3 or 4 days by crystal violet staining based visual analysis relative to control", "type": "functional"}, "SK-BR-3": {"system": "SK-BR-3", "assay": "Antiproliferative activity against human SKBR3 cells assessed as reduction in cell viability incubated for 2 days by MTT assay", "type": "functional, cell-based", "details": "SK-BR-3, 48 h"}, "SUM-159-PT [2]": {"system": "SUM-159-PT", "assay": "Inhibition of mammosphere formation in human SUM159 cells assessed as reduction in number of mammosphere at 1 uM incubated for 10 days by microscopic analysis", "type": "functional"}, "MDA-MB-231 [3]": {"system": "MDA-MB-231", "assay": "Antiproliferative activity against human MDA-MB-231 cells assessed as reduction in cell viability incubated for 2 days by MTT assay", "type": "functional, cell-based", "details": "MDA-MB-231, 48 h"}, "MDA-MB-231 [4]": {"system": "MDA-MB-231", "assay": "Downregulation of NF-kappaB-p65 expression in human MDA-MB-231 cells incubated for 48 hrs by Western blot analysis", "type": "functional, cell-based"}, "KG-1a": {"system": "KG-1a", "assay": "Antiproliferative activity against human KG1a cells assessed as reduction in cell viability incubated for 2 days by MTT assay", "type": "functional, cell-based", "details": "48 h"}, "SUM-159-PT [5]": {"system": "SUM-159-PT", "assay": "Inhibition of mammosphere formation in human SUM159 cells assessed as reduction in number of mammosphere at 0.5 uM incubated for 10 days by microscopic analysis", "type": "functional"}, "MDA-MB-231 [6]": {"system": "MDA-MB-231", "assay": "Inhibition of cell migration of human MDA-MB-231 cells at 0.40 and 0.80 uM incubated for 48 hrs by scratch wound healing assay", "type": "functional, cell-based"}, "[7]": {"target": "Transcription factor p65 (Homo sapiens) (UniProt Q04206)", "sequence (Q04206 whole entry)": "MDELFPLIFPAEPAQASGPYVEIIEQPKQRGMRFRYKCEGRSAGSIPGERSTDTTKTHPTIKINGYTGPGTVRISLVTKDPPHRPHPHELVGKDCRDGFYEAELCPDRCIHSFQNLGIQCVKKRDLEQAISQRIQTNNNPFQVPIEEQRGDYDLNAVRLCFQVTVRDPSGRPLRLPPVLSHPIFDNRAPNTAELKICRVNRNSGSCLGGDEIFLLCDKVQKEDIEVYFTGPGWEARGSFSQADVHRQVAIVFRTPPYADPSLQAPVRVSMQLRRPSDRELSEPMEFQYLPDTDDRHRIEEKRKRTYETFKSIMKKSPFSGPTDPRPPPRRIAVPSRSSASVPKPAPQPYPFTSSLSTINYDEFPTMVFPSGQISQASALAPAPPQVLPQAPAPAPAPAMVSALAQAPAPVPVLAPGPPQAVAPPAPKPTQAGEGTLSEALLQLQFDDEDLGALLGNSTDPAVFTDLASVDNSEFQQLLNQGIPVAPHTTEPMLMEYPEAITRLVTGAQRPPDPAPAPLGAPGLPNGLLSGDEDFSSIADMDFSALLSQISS", "assay": "Inhibition of LPS-stimulated NF-kappaB-p65 in human MDA-MB-231 cells at 0.40 and 0.80 uM incubated for 24 hrs by dual luciferase reporter gene assay", "type": "cell-based"}, "SUM-159-PT [8]": {"system": "SUM-159-PT", "assay": "Antiproliferative activity against human SUM159 cells assessed as reduction in cell viability incubated for 2 days by MTT assay", "type": "functional, cell-based", "details": "48 h"}, "SUM-159-PT [9]": {"system": "SUM-159-PT", "assay": "Inhibition of mammosphere formation in human SUM159 cells assessed as reduction in number of mammosphere at 2 uM incubated for 10 days by microscopic analysis", "type": "functional"}, "MCF7 [10]": {"system": "MCF7", "assay": "Antiproliferative activity against human MCF7 cells assessed as reduction in cell viability incubated for 2 days by MTT assay", "type": "functional, cell-based", "details": "MCF7, 48 h"}, "SUM-159-PT [11]": {"system": "SUM-159-PT", "assay": "Inhibition of mammosphere formation in human SUM159 cells incubated for 10 days by microscopic analysis", "type": "functional, cell-based"}, "MCF7 [12]": {"system": "MCF7", "assay": "Inhibition of colony formation in human MCF7 cells incubated for 14 days with replacement of medium for every 3 or 4 days by crystal violet staining based visual analysis", "type": "functional, cell-based"}, "[13]": {"assay": "Toxicity in zebra fish assessed as survival rate at 250 uM observed for 24 hrs", "design": "species or system Danio rerio", "details": "zebrafish"}}, "note": "Calls of active or inactive are those of the source. The rule behind the calls is not given here."}
{"smiles": "O=C(CCC(=O)N1CCN(CCCN2c3ccccc3Sc3ccccc32)CC1)OCCOc1no[n+]([O-])c1S(=O)(=O)c1ccccc1", "values": [{"measurement": "inhibition at 0.2 µM", "setting": "MCF7 [1]", "value": 10.3, "unit": "%"}, {"measurement": "IC50", "setting": "SK-BR-3", "value": 2.22, "unit": "µM"}, {"measurement": "Activity", "setting": "SUM-159-PT [2]", "value": 2}, {"measurement": "IC50", "setting": "MDA-MB-231 [3]", "value": 1.6, "unit": "µM"}, {"measurement": "Activity", "setting": "MDA-MB-231 [4]", "value": "Dose-dependent effect"}, {"measurement": "IC50", "setting": "KG-1a", "value": 1.78, "unit": "µM"}, {"measurement": "Activity", "setting": "SUM-159-PT [5]", "value": 8}, {"measurement": "inhibition", "setting": "MDA-MB-231 [6]", "value": "Active"}, {"measurement": "inhibition", "setting": "[7]", "value": "Active"}, {"measurement": "IC50", "setting": "SUM-159-PT [8]", "value": 1.78, "unit": "µM"}, {"measurement": "Activity", "setting": "SUM-159-PT [9]", "value": 1}, {"measurement": "IC50", "setting": "MCF7 [10]", "value": 3.23, "unit": "µM"}, {"measurement": "inhibition", "setting": "SUM-159-PT [11]", "value": "Dose-dependent effect"}, {"measurement": "inhibition", "setting": "MCF7 [12]", "value": "Dose-dependent effect"}, {"measurement": "survival at 24 h, 250 µM", "setting": "[13]", "value": 51.6, "unit": "%"}]}
